Test results from patent US9955692B2, “Pyrazoles for controlling invertebrate pests” (BASF SE, priority 2014, dated 2018).

Experiments:
Assay type in all cases: in vivo
[1] = system: Vetch aphid (Megoura viciae); experiment: Vetch aphid bean leaf disk microtiter plate test; details: foliar, 144 h, 6 days, assessed on the basis of vital, reproduced aphids, read-out: mortality in comparison with untreated controls
Procedure: The active compounds were formulated in 3:1 (vol:vol) water:DMSO with different concentrations of formulated compounds.
Bean leaf disks were placed into microtiterplates filled with 0.8% agar-agar and 2.5 ppm OPUS™. The leaf disks were sprayed with 2.5 μl of the test solution and 5 to 8 adult aphids were placed into the microtiter plates which were then closed and kept at 23±1° C. and 50±5% relative humidity under fluorescent light for 6 days. Mortality was assessed on the basis of vital, reproduced aphids. Aphid mortality and fecundity was then visually assessed.

[2] = system: Cowpea aphid (Aphis craccivora); experiment: Cowpea aphid spray test on potted cowpea plants; details: population reduction assessed after 24, 72 and 120 hours, read-out: mortality in comparison with untreated controls
Procedure: If not otherwise specified the test solutions were prepared as follows:
The active compound was dissolved at the desired concentration in a mixture of 1:1 (vol:vol) distilled water:aceton. The test solution was prepared at the day of use and in general at concentrations of ppm (wt/vol).
Potted cowpea plants colonized with 100-150 aphids of various stages were sprayed after the pest population had been recorded. Population reduction was assessed after 24, 72, and 120 hours.

[3] = system: Silverleaf whitefly (Bemisia argentifolii, adult); experiment: Silverleaf whitefly test on sprayed cotton plants; details: 72 h, mortality assessed 3 days after treatment, read-out: mortality in comparison with untreated controls
Procedure: (§1) The active compounds were formulated in cyclohexanone as a 10,000 ppm solution supplied in 1.3 ml ABgene® tubes. These tubes were inserted into an automated electrostatic sprayer equipped with an atomizing nozzle and they served as stock solutions for which lower dilutions were made in 1:1 (vol:vol) water:aceton. A nonionic surfactant (Kinetic®) was included in the solution at a volume of 0.01% (v/v).
Cotton plants at the cotyledon stage (one plant per pot) were sprayed by an automated electrostatic plant sprayer equipped with an atomizing spray nozzle. The plants were dried in the sprayer fume hood and then removed from the sprayer. Each pot was placed into a plastic cup and 10 to 12 whitefly adults (approximately 3-5 days […]) were introduced. The insects were collected using an aspirator and 0.6 cm, nontoxic Tygon® tubing (R-3603) connected to a barrier pipette tip. The tip, containing the collected insects, was then gently inserted into the soil containing the treated plant, allowing insects to crawl out of the tip to reach the foliage for feeding. Cups were covered with a reusable screened lid (150-micron mesh polyester screen PeCap from Tetko, Inc.). […] Mortality was assessed 3 days after treatment, compared to untreated control plants.

[4] = system: Cotton aphid (Aphis gossypii, mixed life stages); experiment: Cotton aphid spray test on cotton plants; details: 120 h, aphid mortality determined after 5 days, read-out: mortality in comparison with untreated controls
Procedure: as §1
Cotton plants at the cotyledon stage were infested with aphids prior to treatment by placing a heavily infested leaf from the main aphid colony on top of each cotyledon. Aphids were allowed to transfer overnight to accomplish an infestation of 80-100 aphids per plant and the host leaf was removed. The infested plants were then sprayed by an automated electrostatic plant sprayer equipped with an atomizing spray nozzle. The plants were dried in the sprayer fume hood, removed from the sprayer, and then maintained in a growth room under fluorescent lighting in a 24-hr photoperiod at 25° C. and 20-40% relative humidity. Aphid mortality on the treated plants, relative to mortality on untreated control plants, was determined after 5 days.

[5] = system: Green peach aphid (Myzus persicae); experiment: Green peach aphid spray test on bell pepper plants; details: 120 h, aphid mortality determined after 5 days, read-out: mortality in comparison with untreated controls
Procedure: as §1
Bell pepper plants at the first true-leaf stage were infested prior to treatment by placing heavily infested leaves from the main colony on top of the treatment plants. Aphids were allowed to transfer overnight to accomplish an infestation of 30-50 aphids per plant and the host leaves were removed. The infested plants were then sprayed by an automated electrostatic plant sprayer equipped with an atomizing spray nozzle. The plants were dried in the sprayer fume hood, removed, and then maintained in a growth room under fluorescent lighting in a 24 hour photoperiod at 25° C. and 20-40% relative humidity. Aphid mortality on the treated plants, relative to mortality on untreated control plants, was determined after 5 days.

CCC(C)=NOCC(C)n1ncc(C(=O)N(CC)c2ccnnc2)c1C (single isomer, unassigned) [I-9, N-ethyl-5-methyl-1-[1-methyl-2-[1-methyl-propylideneamino]oxy-ethyl]-N-pyridazin-4-yl-pyrazole-4-carboxamide]
≥ 75%: mortality at 2500 ppm [1] | mortality at 500 ppm [2] | mortality at 300 ppm [3] | mortality at 300 ppm [4] | mortality at 300 ppm [5]
